The values that follow come from ChEMBL document CHEMBL3421582, “Quinofuracins A-E, produced by the fungus Staphylotrichum boninense PF1444, show p53-dependent growth suppression” (J Nat Prod, 2015).

Activity calls are given as the source filed them. No cut-off for these calls is given here.

Assay [1] has as its target Cellular tumor antigen p53 (Homo sapiens) (UniProt P04637). Nature of the assay: Induction of p53-dependent growth suppression of human LNZTA3 cells after 72 hrs by MTT assay. The assay is classed as cell-based. (Tetrazolium dyes change colour on reduction, which living cells bring about.)
The nature of assay [2]: (§1) Cytotoxicity against p53-deficient human LNZTA3 cells assessed as growth inhibition after 72 hrs by MTT assay. The format is functional, cell-based. To be noted: LNZTA3, 72 h.
Assay [3] deals with Cellular tumor antigen p53 (Homo sapiens) (UniProt P04637). Nature of the assay: Induction of wild type p53-dependent growth suppression of human MKN45 cells. The assay is classed as cell-based. The note with it: MKN-45.
Assay [4] has the same target. Nature of the assay: Induction of wild type p53-dependent growth suppression of human RKO cells. The format is cell-based.
Assay [5] shares this target. The assay can be described thus: Induction of wild type p53-dependent growth suppression of human HCT116 cells. The format is cell-based. The note with it: HCT-116.
The target is the same in assay [6]. The assay can be described thus: Induction of wild type p53-dependent growth suppression of human MCF7 cells. The format is cell-based.
For assay [7], the system named is Cellular tumor antigen p53 (Homo sapiens), P04637 [UNDEFINED MUTATION]. The assay can be described thus: Induction of p53 mutant-dependent growth suppression of human MKN7 cells. The assay is classed as cell-based. The note with it: MKN-7.
Assay [8] shares this test system. The assay can be described thus: Induction of p53 mutant-dependent growth suppression of human HCT15 cells. The note with it: HCT-15. The format is cell-based.
Assay [9] has the same test system. The assay can be described thus: Induction of p53 mutant-dependent growth suppression of human […] cells.
For assay [10], the system named is LNZTA3. The assay can be described thus: Cytotoxicity against p53-deficient human LNZTA3 cells assessed as growth inhibition at >100 uM after 72 hrs by MTT assay. The format is functional, cell-based.
The subject of assay [11] is LNZTA3. Described as §1. The format is functional, cell-based.

Cellular tumor antigen p53 (Homo sapiens), sequence (P04637 whole entry, looked up): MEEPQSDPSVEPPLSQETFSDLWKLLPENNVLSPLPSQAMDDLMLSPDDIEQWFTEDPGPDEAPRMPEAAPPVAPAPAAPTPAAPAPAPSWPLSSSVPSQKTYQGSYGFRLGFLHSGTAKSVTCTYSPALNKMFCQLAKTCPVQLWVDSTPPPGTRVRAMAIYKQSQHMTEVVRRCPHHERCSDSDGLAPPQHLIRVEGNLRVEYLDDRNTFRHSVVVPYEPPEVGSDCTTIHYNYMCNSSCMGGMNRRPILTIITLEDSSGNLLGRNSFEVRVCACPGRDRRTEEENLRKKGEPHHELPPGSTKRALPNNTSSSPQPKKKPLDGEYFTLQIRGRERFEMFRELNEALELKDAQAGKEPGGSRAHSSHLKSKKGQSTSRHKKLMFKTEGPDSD
Cellular tumor antigen p53 (Homo sapiens), P04637 [UNDEFINED MUTATION], sequence (P04637 whole entry, looked up, change not shown): as the sequence (P04637 whole entry, looked up) above

With `CCCCC[C@H](O)c1c(O)cc2c(c1O)C(=O)c1c(O)cc(O)cc1C2=O`, the outcome in assay [1] was Active.

For orientation: IC50 means the concentration that inhibits the measured activity by half. As for `CCCCC[C@H](O[C@@H]1O[C@@H]([C@H](O)CO)[C@H](O)[C@H]1O)c1c(O)cc2c(c1O)C(=O)c1c(O)cc(O)cc1C2=O`, the IC50 in assay [2] came out at 32 µM. Also, the outcome in assay [3], in assay [4], in [5], in [6], in [7] and in [8] was Active. In addition, in [9], the result was Active.

For `CC(=O)CCC[C@H](O[C@@H]1O[C@@H]([C@H](O)CO)[C@H](O)[C@H]1O)c1c(O)cc2c(c1O)C(=O)c1c(O)cc(O)cc1C2=O`, the result in assay [1], in [3], in assay [4], in assay [5], in assay [6] and in assay [7] was Active. Besides, the outcome in [8] and in assay [9] was Active. In addition, the “growth inhibition (GI)” value in the assay on LNZTA3 [10] was “inactive”.

With `CCCCC[C@H](O[C@@H]1O[C@@H]([C@H](O)CO)[C@H](O)[C@H]1OC(C)=O)c1c(O)cc2c(c1O)C(=O)c1c(O)cc(O)cc1C2=O`, the IC50 in assay [2] is 32 µM. The outcome in assay [3], in [4], in assay [5], in assay [6], in assay [7] and in assay [8] was Active. Further, the outcome in [9] was Active.

For `CCCCC[C@H](O)c1c(O[C@@H]2O[C@@H]([C@H](O)CO)[C@H](O)[C@H]2O)cc2c(c1O)C(=O)c1c(O)cc(O)cc1C2=O`, the outcome in [1], in [3], in assay [4], in assay [5], in assay [6] and in assay [7] was Active. The result in assay [8] and in assay [9] was Active. In addition, in the assay with LNZTA3 [11], the “growth inhibition (GI)” value was “Active”.

For the molecule `O=C1c2cc(O[C@@H]3O[C@@H]([C@H](O)CO)[C@H](O)[C@H]3O)cc(O)c2C(=O)c2c1cc1c(c2O)[C@@H]2CCO[C@@H]2O1`, the result in [1], in assay [3], in [4], in assay [5], in [6] and in assay [7] was Active. Further, the outcome in [8] and in [9] was Active. In addition, in the assay on LNZTA3 [11], the “growth inhibition (GI)” value was “Active”.
